Laboratory results reported in patent publication US20060160824A1, “Indole derivatives as serotonin reuptake inhibitors” (priority 2003, published 2006).

Columns and labels:
5-HT1A receptor = target: T1, 5-HT1A receptor (Rattus norvegicus, UniProt P19327); assay: 5-HT1A receptor binding test
T1 construct: from tissue
T1 sequence (P19327 1-422): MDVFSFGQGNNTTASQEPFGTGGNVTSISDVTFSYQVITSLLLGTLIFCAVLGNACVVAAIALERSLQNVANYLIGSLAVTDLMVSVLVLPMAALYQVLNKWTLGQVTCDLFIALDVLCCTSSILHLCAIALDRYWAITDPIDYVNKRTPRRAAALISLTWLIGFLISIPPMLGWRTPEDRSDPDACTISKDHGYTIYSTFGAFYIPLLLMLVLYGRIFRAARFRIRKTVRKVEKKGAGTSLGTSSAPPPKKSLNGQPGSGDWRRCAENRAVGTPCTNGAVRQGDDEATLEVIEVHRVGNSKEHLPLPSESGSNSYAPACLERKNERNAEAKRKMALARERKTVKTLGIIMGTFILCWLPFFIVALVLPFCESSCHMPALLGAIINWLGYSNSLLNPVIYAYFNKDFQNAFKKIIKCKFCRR
Description: In particular, they inhibit 5-HT reuptake. […] Due to a 5-HT-agonistic action and 5-HT reuptake inhibition, serotonin remains in the synaptic cleft for longer and the serotonin action is reinforced. Active ingredients having such properties are therefore particularly suitable as antidepressants and anxiolytics. The compounds of the formula I inhibit the binding of tritiated serotonin ligands to hippocampal receptors (Cossery et al., European J. Pharmacol. 140 (1987), 143-155) and synaptosomal serotonin reuptake (Sherman et al., Life Sci. 23 (1978), 1863-1870).
The 5-HT1A-agonistic action can be measured in vitro, for example, with the aid of the (serotonin) binding test, as described by Matzen et al. (J. Med. Chem., 43 (2000), 1149-57), in particular on page 1156 with reference to Eur. J. Pharmacol., 140 (1987), 143-155. In addition, the 5-HT1A-agonistic action can be measured with the aid of the GTPgammaS test described by Newman-Tancredi et al. (Eur. J. Pharmacol. 307 (1996), 107-11).

5-HT4 receptor = 5-HT4 receptor (Homo sapiens, UniProt Q13639); assay: 5-HT4 receptor binding test
Sequence of 5-HT4 receptor (Q13639 whole entry): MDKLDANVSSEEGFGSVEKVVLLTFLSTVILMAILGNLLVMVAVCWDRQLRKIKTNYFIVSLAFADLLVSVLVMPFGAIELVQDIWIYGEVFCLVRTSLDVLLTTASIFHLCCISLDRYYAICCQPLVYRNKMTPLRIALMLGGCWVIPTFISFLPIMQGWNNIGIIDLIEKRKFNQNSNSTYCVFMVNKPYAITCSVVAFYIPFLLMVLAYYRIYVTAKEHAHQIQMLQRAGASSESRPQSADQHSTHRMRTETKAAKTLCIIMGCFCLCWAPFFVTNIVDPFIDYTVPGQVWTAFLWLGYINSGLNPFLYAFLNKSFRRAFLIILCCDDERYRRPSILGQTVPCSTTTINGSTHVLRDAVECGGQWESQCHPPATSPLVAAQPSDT

IC50 (5-HT1A receptor): 0.096 µM | IC50 (5-HT4 receptor): 0.021 µM
SMILES: Cn1cc(CCCCN2CCN(c3ccc4oc(C(N)=O)cc4c3)CC2)c2cc(C#N)ccc21 [Example 1, 5-{4-[4-(5-cyano-1-methyl-1H-indol-3-yl)butyl]piperazin-1-yl}-benzofuran-2-carboxamide]
